# Measured values reported in patent US7179830B2, “Substituted thienoimidazoles useful for disease treatment and prevention” (Sanofi-aventis Deutschland GmbH, priority 2003, dated 2007).
# pIC50: −log10 of the molar value. Where a name gives a salt, the structure may show the parent alone.
# How the values were obtained:
# Assay type in all cases: cell-based
# NHE3 = target: T1, NHE3 (Homo sapiens, UniProt P48764); assay: Determination of the NHE inhibition: recovery of intracellular pH after acidification (BCECF fluorescence), NHE3; settings: for pIC50: pH recovery registered at three minutes
# T1 construct: host or cells: cells, not specified
# T1 sequence (P48764 26-834): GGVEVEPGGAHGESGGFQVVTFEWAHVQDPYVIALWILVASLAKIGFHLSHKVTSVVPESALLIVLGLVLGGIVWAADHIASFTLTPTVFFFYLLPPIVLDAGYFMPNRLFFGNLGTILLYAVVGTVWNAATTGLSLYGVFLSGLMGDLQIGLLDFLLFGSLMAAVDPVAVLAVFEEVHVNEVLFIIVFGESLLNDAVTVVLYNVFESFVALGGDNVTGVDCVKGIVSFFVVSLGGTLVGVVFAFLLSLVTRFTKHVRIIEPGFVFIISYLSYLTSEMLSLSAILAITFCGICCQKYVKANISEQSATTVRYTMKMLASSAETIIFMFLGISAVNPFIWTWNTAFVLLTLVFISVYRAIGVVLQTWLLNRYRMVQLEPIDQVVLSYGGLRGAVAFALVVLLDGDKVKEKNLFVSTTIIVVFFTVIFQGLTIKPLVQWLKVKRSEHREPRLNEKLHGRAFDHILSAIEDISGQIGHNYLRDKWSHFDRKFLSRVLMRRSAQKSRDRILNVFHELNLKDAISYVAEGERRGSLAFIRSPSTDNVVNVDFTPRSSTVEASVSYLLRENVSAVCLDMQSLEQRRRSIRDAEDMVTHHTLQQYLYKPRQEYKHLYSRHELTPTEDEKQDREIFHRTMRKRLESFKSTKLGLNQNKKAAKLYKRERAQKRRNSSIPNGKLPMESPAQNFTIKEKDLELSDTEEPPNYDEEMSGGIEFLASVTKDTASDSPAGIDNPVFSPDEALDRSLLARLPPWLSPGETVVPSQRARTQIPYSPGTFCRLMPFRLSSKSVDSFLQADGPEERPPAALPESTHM
# Description: [drawing 14] is obtained by adding saturated sodium hydrogencarbonate solution to a suspension of 306 mg of 2-(2-chloro-4-methyl-3-thienylamino)-1H-thieno[3,4-d]imidazole hydrochloride (example 5) in 40 ml of water, in the course of which a pH of 10 is established. After the suspension had been stirred at room temperature for 1 hour, the solid was filtered off and washed repeatedly with water, and the product was dried in an air stream. Colorless crystalline product, decomposition point from 180° C. Pharmacological Data: Determination of the NHE Inhibition Test Description:
# This test determined the recovery of the intracellular pH (pHi) after acidification, and this recovery occurs in the case of functional NHE even under bicarbonate-free conditions. To this end, the pHi was determined using the pH-sensitive fluorescent dye BCECF (Calbiochem, the BCECF-AM precursor is used). The cells were initially loaded with BCECF. The BCECF fluorescence was determined in a Ratio Fluorescence Spectrometer (Photon Technology International, South Brunswick, N.J., USA) at excitation wavelengths of 505 and 440 nm and an emission wavelength of 535 nm and converted to the pHi by means of calibration curves. The cells had already been incubated in NH4Cl buffer (pH 7.4) in the course of the BCECF loading (NH4Cl buffer: 115 mM NaCl, 20 mM NH4Cl, 5 mM KCl, 1 mM CaCl2, 1 mM MgSO4, 20 mM Hepes, 5 mM glucose, 1 mg/ml BSA; a pH of 7.4 is established using 1 M NaOH). The intracellular acidification is induced by adding 975 μl of an NH4Cl-free buffer (see below) to 25 μl aliquots of the cells incubated in NH4Cl buffer. The subsequent rate of the pH recovery was registered at two minutes for NHE1, at five minutes for NHE2 and at three minutes for NHE3. For the calculation of the inhibitory potency of the tested substances, the cells were initially investigated in buffers in which complete or absolutely no pH recovery took place. For complete pH recovery (100%), the cells were incubated in Na^+-containing buffer (133.8 mM NaCl, 4.7 mM KCl, 1.25 mM CaCl2, 1.25 mM MgCl2, 0.97 mM Na2HPO4, 0.23 mM NaH2PO4, 5 mM Hepes, 5 mM glucose, a pH of 7.0 is established using 1 M NaOH). For the determination of the 0% value, the cells were incubated in an Na^+-free buffer (133.8 mM choline chloride, 4.7 mM KCl, 1.25 mM CaCl2, 1.25 mM MgCl2, 0.97 mM K2HPO4, 0.23 mM KH2PO4, 5 mM Hepes, 5 mM glucose, a pH of 7.0 is established using 1 M KOH). The substances to be tested were made up in the Na^+-containing buffer. The recovery of the intracellular pH at each tested concentration of a substance was expressed in percent of the maximum recovery. The percentages of the pH recovery were used to calculate the IC50 value of the particular substance for the individual NHE subtypes by means of the program Sigma-Plot.
# NHE1 = NHE1 (Homo sapiens, UniProt P19634); assay: NHE inhibition, NHE1 subtype; settings: in a therapeutically utilizable concentration range
# Sequence of NHE1 (P19634 whole entry, species assumed): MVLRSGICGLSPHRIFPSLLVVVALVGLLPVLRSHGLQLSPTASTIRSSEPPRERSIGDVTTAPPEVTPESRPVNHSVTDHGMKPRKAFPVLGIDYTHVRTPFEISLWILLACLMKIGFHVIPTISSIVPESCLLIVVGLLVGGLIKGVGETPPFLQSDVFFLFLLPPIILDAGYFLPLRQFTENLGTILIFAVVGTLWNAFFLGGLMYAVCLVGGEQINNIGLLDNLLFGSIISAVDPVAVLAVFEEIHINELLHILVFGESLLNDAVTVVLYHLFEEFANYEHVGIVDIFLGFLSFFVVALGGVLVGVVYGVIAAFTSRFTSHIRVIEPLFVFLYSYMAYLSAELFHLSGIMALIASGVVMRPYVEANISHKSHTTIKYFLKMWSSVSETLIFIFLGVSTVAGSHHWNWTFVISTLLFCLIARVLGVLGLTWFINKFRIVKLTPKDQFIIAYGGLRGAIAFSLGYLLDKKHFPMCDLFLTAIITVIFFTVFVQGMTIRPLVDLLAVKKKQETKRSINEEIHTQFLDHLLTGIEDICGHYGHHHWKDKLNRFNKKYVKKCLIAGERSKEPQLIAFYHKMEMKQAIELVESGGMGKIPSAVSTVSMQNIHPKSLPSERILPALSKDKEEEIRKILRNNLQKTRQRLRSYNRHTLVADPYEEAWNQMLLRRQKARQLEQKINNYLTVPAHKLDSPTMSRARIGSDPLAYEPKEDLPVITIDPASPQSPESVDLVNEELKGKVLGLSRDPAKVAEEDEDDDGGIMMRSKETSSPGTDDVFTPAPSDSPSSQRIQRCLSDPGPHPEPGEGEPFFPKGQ
# Description: (§1) This test determined the recovery of the intracellular pH (pHi) after acidification, and this recovery occurs in the case of functional NHE even under bicarbonate-free conditions. To this end, the pHi was determined using the pH-sensitive fluorescent dye BCECF (Calbiochem, the BCECF-AM precursor is used). The cells were initially loaded with BCECF. The BCECF fluorescence was determined in a Ratio Fluorescence Spectrometer (Photon Technology International, South Brunswick, N.J., USA) at excitation wavelengths of 505 and 440 nm and an emission wavelength of 535 nm and converted to the pHi by means of calibration curves. The cells had already been incubated in NH4Cl buffer (pH 7.4) in the course of the BCECF loading (NH4Cl buffer: 115 mM NaCl, 20 mM NH4Cl, 5 mM KCl, 1 mM CaCl2, 1 mM MgSO4, 20 mM Hepes, 5 mM glucose, 1 mg/ml BSA; a pH of 7.4 is established using 1 M NaOH). The intracellular acidification is induced by adding 975 μl of an NH4Cl-free buffer (see below) to 25 μl aliquots of the cells incubated in NH4Cl buffer. The subsequent rate of the pH recovery was registered at two minutes for NHE1, at five minutes for NHE2 and at three minutes for NHE3. For the calculation of the inhibitory potency of the tested substances, the cells were initially investigated in buffers in which complete or absolutely no pH recovery took place. […]
# NHE2 = target: T2, NHE2 (Homo sapiens, UniProt Q9UBY0); assay: NHE inhibition, NHE2 subtype; settings: in a therapeutically utilizable concentration range
# T2 sequence (Q9UBY0 1-812): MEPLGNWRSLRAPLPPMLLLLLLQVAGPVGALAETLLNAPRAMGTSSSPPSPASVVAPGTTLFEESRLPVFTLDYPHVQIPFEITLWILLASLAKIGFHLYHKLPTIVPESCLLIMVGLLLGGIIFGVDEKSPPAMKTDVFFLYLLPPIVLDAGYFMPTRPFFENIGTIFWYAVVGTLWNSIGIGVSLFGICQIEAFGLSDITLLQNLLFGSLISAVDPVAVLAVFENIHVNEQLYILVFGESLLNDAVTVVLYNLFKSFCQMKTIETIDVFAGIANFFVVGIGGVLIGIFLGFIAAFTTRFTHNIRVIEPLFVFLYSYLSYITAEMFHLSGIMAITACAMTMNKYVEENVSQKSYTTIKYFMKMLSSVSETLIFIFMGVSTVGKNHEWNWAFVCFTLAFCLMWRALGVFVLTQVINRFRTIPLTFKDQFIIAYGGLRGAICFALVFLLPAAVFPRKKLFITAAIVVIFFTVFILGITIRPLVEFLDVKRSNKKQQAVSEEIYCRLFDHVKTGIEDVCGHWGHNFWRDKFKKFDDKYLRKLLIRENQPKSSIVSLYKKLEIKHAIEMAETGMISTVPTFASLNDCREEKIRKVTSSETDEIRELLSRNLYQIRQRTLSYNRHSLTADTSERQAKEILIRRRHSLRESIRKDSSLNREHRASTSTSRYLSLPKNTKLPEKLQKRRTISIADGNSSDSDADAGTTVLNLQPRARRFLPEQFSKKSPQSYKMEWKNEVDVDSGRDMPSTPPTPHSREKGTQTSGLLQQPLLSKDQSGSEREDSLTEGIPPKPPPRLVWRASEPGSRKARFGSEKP
# Description: as §1
# NHE5 = target: T3, NHE5 (Homo sapiens, UniProt Q14940); assay: NHE inhibition, NHE5 subtype; settings: in a therapeutically utilizable concentration range
# T3 sequence (Q14940 1-896): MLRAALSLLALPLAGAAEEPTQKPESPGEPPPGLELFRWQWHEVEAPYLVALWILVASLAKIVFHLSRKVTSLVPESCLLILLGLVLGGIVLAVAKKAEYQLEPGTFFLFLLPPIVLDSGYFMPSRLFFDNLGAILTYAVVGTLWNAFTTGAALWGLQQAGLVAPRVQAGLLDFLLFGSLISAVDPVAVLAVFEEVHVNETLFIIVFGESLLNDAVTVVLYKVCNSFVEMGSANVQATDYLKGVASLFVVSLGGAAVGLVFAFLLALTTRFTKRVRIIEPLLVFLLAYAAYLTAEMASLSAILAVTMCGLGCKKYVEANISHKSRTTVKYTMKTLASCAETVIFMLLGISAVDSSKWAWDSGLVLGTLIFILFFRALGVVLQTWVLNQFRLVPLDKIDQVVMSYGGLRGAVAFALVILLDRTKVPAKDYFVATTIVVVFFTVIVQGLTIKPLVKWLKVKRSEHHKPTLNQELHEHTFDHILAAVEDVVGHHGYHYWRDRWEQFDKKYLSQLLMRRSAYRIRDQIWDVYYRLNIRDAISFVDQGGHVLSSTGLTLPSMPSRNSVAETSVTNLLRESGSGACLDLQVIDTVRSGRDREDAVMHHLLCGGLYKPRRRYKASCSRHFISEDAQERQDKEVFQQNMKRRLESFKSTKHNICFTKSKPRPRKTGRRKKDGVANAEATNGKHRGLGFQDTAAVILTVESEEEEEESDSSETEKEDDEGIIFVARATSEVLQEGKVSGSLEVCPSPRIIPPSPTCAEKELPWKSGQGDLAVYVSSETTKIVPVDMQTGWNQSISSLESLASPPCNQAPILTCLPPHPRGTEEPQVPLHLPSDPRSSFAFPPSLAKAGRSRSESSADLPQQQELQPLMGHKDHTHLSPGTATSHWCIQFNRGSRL
Compound,pIC50 (NHE3),further results
"FC(F)(F)c1ccccc1Nc1nc2cscc2[nH]1 [Example 6, 2-(2-Trifluoromethylphenylamino)-1H-thieno[3,4-d]imidazole hydrochloride]",5.19,–
"Cc1cccc(Cl)c1Nc1nc2cscc2[nH]1 [Example 9, 2-(2-Chloro-6-methylphenylamino)-1H-thieno[3,4-d]imidazole hydrochloride]",5.84,–
"Clc1csc(Cl)c1Nc1nc2cscc2[nH]1 [Example 10, 2-(2,4-Dichloro-3-thienylamino)-1H-thieno[3,4-d]imidazole hydrochloride]",6.49,–
Cc1csc(Cl)c1NC1=NCCN1 [tiamenidine],–,inhibitory action on NHE3 (NHE3; in a therapeutically utilizable concentration range): no relevant inhibitory actions; inhibitory action on NHE1 (NHE1): no relevant inhibitory actions; inhibitory action on NHE2 (NHE2): no relevant inhibitory actions; inhibitory action on NHE5 (NHE5): no relevant inhibitory actions

# Second part, led by results:
pIC50 (NHE3),Compound,further results
6.66,"Clc1cccc(Cl)c1Nc1nc2cscc2[nH]1 [Example 2, 2-(2,6-Dichlorophenylamino)-1H-thieno[3,4-d]imidazole hydrochloride]",–
6.82,"Cc1csc(Cl)c1Nc1nc2cscc2[nH]1 [Example 5, 2-(2-Chloro-4-methyl-3-thienylamino)-1H-thieno[3,4-d]imidazole hydrochloride]",–
